Assays:
[1] = molecular target: Casein kinase I isoform alpha (Homo sapiens, UniProt P48729); experiment: Radiometric-Based Assay (CK1α)
Procedure: Single-point measurements analyses and subsequent dose-dependent investigations of selected pteridine derivatives for inhibition of CK1α were performed at Reaction Biology (USA) using a radiometric-based assay and ATP concentration of 10 µM. For more details related to the experimental conditions employed please consult the following websites: http://www.reactionbiology.com/webapps/site/KinaseDetail.aspx.

[2] = molecular target: Casein kinase I isoform delta (Homo sapiens, UniProt P48730); experiment: KinaseGlo Plus Luminescent Assay; settings: pH 7.5
Casein kinase I isoform delta, sequence (P48730 whole entry, canonical isoform): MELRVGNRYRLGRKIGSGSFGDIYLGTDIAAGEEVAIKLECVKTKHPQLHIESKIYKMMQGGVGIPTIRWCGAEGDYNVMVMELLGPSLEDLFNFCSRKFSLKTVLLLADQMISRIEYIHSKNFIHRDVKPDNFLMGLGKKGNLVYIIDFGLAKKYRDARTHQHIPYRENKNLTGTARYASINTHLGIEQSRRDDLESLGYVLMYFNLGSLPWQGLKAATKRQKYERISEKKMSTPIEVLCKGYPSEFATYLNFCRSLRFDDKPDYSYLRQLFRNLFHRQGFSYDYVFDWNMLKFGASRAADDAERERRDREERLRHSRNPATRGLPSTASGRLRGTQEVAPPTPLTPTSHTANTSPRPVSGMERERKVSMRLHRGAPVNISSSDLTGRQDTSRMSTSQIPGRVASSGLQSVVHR
Procedure: (§1) A stock solution of 5 % DMSO (BioReagent for molecular biology, Sigma Aldrich) in water was prepared. The CK1 substrate peptide RRKDLHDDEEDEAMSITA (Jena Bioscience, cat. no. PE-206, 2 mM stock solution in water) was diluted in water to a final concentration of 250 μM. CK1δ or CK1Ɛ kinases were diluted with CK1 dilution buffer to 50 ng / µL. In addition, fresh Reaction buffer was prepared containing 250 mM Tris-HCl (pH 7.5), 50 mM MgCl2, 5 mM DTT and 0.5 mg / mL bovine serum albumin (BSA). Compounds were serially diluted in 5 % DMSO solution to the desired concentrations (maximal concentration employed in the assay was 50 µM). Additional samples included blank sample containing Reaction buffer, water and CK1δ / CK1Ɛ kinase and control sample containing Reaction buffer, CK1 substrate peptide and CK1δ / CK1Ɛ kinase. CK1 substrate peptide, Reaction buffer and CK1δ / CK1Ɛ kinase stock solutions were mixed in 1:1:1 ratio. 6 μL of this mixtur

[3] = molecular target: Casein kinase I isoform epsilon (Homo sapiens, UniProt P49674); experiment: KinaseGlo Plus Luminescent Assay; settings: pH 7.5
Casein kinase I isoform epsilon, sequence (P49674 whole entry, canonical isoform): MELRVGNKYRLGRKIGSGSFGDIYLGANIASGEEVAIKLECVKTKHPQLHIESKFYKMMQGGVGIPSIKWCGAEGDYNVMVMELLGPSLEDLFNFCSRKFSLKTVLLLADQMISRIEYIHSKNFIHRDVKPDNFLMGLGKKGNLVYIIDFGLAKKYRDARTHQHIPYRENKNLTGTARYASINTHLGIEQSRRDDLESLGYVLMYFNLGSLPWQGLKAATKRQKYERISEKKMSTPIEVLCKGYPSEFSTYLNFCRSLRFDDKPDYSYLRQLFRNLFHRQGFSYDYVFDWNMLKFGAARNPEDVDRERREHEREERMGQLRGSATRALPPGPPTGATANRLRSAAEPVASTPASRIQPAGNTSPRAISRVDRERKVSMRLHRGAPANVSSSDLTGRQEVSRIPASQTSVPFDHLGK
Procedure: as §1

[4] = molecular target: T1, Epidermal growth factor receptor [1-973] (Homo sapiens, UniProt P00533); experiment: Radiometric-Based Assay (Epiblastin A)
T1 construct: 1-973
T1 sequence (P00533 1-973): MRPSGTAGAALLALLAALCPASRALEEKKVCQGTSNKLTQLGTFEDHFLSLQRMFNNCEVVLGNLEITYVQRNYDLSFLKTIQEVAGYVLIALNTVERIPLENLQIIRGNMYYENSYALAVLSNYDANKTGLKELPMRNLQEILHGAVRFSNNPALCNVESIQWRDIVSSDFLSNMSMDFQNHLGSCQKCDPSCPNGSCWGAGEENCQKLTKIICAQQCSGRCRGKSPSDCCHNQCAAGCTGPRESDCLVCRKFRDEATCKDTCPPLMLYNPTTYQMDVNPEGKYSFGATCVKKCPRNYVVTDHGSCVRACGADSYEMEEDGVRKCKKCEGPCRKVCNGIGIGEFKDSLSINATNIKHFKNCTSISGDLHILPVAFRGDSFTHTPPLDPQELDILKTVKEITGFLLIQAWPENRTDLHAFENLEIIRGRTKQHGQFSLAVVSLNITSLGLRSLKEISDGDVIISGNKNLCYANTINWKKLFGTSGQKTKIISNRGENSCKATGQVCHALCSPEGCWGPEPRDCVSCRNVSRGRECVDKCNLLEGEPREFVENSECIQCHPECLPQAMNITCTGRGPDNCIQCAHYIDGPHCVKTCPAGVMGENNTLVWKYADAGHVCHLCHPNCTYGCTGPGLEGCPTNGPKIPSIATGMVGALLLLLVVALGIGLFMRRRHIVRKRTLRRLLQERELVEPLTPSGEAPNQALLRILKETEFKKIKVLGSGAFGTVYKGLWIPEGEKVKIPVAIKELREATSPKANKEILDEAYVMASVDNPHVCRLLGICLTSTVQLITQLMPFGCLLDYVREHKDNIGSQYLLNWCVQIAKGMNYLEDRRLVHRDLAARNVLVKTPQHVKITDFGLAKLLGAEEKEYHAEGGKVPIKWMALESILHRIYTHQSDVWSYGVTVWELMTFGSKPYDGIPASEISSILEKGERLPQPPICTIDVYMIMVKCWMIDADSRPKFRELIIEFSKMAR
Text: (§2) Dose-dependent investigations of Epiblastin A against BrSK1, Egfr, eEF2k, Mknk2, Ripk2 and Stk10 have been performed under the same experimental setup, i.e. at Km-ATP value. Half-maximal inhibitory concentrations (IC50) were obtained by fitting the obtained data with three parameter nonlinear regression analysis using GraphPad Prism version 6.00 for Windows (GraphPad Software, USA). For more details related to the experimental conditions employed at Eurofins please consult the following website: http://www.eurofins.com/pharma-services/pharma-discovery-services/services/in-vitropharmacology/kinases/biochemical.aspx

[5] = molecular target: T2, Eukaryotic elongation factor 2 kinase (Homo sapiens, UniProt O00418); experiment: Radiometric-Based Assay (Epiblastin A)
T2 sequence (O00418 whole entry): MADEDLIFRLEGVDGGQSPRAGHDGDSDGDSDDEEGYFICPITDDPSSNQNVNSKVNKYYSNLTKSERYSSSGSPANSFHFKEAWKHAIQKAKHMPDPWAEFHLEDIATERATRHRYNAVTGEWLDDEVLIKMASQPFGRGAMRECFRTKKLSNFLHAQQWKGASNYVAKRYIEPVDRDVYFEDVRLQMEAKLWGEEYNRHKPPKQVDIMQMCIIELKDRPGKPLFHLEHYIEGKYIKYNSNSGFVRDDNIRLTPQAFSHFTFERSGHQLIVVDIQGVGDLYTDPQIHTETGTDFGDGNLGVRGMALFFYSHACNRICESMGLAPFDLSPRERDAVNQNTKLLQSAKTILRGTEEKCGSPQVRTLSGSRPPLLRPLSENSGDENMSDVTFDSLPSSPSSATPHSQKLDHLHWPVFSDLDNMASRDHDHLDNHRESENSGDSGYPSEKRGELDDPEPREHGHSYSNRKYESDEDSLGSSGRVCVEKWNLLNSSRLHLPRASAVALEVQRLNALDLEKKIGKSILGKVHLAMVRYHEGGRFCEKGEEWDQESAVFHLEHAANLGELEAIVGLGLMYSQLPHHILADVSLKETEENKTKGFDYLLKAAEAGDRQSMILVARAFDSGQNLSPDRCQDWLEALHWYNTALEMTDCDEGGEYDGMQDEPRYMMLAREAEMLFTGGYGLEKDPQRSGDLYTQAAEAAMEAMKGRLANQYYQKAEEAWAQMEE
Text: as §2

[6] = molecular target: MAP kinase-interacting serine/threonine-protein kinase 2 (Homo sapiens, UniProt Q9HBH9); experiment: Radiometric-Based Assay (Epiblastin A)
MAP kinase-interacting serine/threonine-protein kinase 2, sequence (Q9HBH9 whole entry): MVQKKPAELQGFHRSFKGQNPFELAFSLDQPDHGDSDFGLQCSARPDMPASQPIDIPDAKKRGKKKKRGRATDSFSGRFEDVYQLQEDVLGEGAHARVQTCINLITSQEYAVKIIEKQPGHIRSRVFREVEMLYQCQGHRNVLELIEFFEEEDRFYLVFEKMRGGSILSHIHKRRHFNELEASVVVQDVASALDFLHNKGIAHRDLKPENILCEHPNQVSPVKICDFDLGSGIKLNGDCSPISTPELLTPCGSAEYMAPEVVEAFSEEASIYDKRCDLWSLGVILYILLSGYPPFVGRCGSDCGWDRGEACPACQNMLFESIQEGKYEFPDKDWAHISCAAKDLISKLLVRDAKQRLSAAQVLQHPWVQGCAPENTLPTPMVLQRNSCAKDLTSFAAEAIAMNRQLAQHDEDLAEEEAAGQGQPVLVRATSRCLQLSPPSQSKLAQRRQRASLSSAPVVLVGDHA
Text: as §2

[7] = molecular target: Receptor-interacting serine/threonine-protein kinase 2 (Homo sapiens, UniProt O43353); experiment: Radiometric-Based Assay (Epiblastin A)
Receptor-interacting serine/threonine-protein kinase 2, sequence (O43353 whole entry): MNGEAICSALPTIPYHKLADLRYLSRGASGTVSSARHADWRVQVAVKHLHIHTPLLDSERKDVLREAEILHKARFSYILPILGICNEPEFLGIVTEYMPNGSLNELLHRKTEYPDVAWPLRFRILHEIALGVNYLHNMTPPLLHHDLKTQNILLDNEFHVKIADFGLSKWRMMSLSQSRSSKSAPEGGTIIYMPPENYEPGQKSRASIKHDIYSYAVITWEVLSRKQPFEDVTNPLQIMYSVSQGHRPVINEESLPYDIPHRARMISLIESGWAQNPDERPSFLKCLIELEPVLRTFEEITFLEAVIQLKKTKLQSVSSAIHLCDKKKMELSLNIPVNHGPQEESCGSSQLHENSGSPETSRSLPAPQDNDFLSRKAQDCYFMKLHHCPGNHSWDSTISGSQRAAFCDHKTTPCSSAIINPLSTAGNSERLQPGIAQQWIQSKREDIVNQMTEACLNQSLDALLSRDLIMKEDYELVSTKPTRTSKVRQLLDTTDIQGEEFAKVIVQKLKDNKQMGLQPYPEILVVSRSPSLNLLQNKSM
Text: as §2

[8] = molecular target: T3, Serine/threonine-protein kinase BRSK1 (Homo sapiens, UniProt Q8TDC3); experiment: Radiometric-Based Assay (Epiblastin A)
T3 sequence (Q8TDC3 whole entry): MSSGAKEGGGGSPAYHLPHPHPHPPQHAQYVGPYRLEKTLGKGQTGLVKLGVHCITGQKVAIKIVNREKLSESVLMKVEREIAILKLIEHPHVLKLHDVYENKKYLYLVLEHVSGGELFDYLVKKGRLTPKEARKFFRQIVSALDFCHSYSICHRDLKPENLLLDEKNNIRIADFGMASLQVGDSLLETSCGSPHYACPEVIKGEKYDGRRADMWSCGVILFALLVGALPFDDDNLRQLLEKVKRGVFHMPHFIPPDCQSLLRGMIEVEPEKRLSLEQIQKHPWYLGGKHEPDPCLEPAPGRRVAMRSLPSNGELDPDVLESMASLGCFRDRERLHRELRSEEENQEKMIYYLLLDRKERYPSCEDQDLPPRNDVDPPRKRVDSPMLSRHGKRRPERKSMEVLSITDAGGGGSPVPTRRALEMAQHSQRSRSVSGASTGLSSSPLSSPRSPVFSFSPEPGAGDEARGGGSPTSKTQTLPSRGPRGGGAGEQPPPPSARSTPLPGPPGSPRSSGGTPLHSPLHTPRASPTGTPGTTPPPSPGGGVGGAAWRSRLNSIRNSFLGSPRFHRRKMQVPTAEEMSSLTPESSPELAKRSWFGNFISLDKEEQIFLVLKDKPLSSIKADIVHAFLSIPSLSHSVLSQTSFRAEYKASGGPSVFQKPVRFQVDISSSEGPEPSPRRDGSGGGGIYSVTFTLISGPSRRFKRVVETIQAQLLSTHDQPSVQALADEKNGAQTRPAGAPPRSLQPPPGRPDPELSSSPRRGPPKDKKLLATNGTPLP
Text: as §2

Casein kinase I isoform alpha, sequence (P48729 whole entry, canonical isoform): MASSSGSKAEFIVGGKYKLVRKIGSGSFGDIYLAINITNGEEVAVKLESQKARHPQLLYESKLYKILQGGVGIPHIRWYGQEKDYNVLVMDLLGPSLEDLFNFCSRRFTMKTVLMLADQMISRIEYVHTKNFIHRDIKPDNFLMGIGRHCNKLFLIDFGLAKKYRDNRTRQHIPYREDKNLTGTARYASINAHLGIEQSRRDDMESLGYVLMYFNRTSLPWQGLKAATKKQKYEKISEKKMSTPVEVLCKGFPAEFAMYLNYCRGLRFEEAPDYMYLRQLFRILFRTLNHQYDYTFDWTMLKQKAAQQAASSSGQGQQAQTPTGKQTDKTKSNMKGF

Row | IC50 [1] | IC50 [2] | IC50 [3] | SMILES | also measured
1 | 33.3 µM | 61.8 µM | 14.4 µM | Nc1nc(N)c2nc(-c3cccc(F)c3)c(N)nc2n1 [6-(3-fluorophenyl)pteridine-2,4,7-triamine (16)] | –
2 | – | 12.3 µM | 26.3 µM | COc1cccc(-c2nc3c(N)nc(N)nc3nc2N)c1 [6-(3-methoxyphenyl)pteridine-2,4,7-triamine (20)] | –
3 | – | 81.2 µM | – | Nc1ccc(-c2nc3c(N)nc(N)nc3nc2N)cc1 [6-(4-aminophenyl)pteridine-2,4,7-triamine (10)] | –
4 | – | 16.1 µM | 15.5 µM | Nc1nc(N)c2nc(-c3cccnc3)c(N)nc2n1 [6-(pyridin-3-yl)pteridine-2,4,7-triamine (33)] | –
5 | 14.2 µM | 24.4 µM | 8.1 µM | Nc1nc(N)c2nc(-c3cccs3)c(N)nc2n1 [6-(thiophen-2-yl)pteridine-2,4,7-triamine (32)] | –
6 | – | 20.2 µM | – | Cc1cccc(-c2nc3c(N)nc(N)nc3nc2N)c1 [6-m-Tolyl-pteridine-2,4,7-triamine] | –
7 | 29.5 µM | 80.6 µM | 6 µM | Nc1nc(N)c2nc(-c3ccccc3)cnc2n1 [6-phenylpteridine-2,4-diamine (35)] | –
8 | 5.5 µM | 9.6 µM | 6.6 µM | Nc1nc(N)c2nc(-c3cccc(Oc4ccccc4)c3)c(Cc3ccccc3)nc2n1 [7-benzyl-6-(3-phenoxyphenyl)pteridine-2,4-diamine (36)] | –
9 | 8.9 µM | 0.5 µM | 4.7 µM | Nc1nc(N)c2nc(-c3cccc(Cl)c3)c(N)nc2n1 [Epiblastin A] | IC50 [4]: 8.3 µM; IC50 [5]: 27.4 µM; IC50 [6]: 45.1 µM; IC50 [7]: 38.1 µM; IC50 [8]: 24.2 µM
10 | 36.8 µM | 36.4 µM | 26.8 µM | Nc1nc(N)c2nc(-c3ccccc3)c(N)nc2n1 [Pteridine deriv. 11] | –

The next lines start with the molecule.

Row | SMILES | IC50 [1] | IC50 [2] | IC50 [3] | also measured
11 | Nc1nc(N)c2nc(-c3csc4ccccc34)c(N)nc2n1 [6-(1-benzothiophen-3-yl)pteridine-2,4,7-triamine (31)] | 5.6 µM | 2.8 µM | 0.6 µM | –
12 | Nc1nc(N)c2nc(-c3ccc(Cl)cc3Cl)c(N)nc2n1 [6-(2,4-dichlorophenyl)pteridine-2,4,7-triamine (25)] | 55.6 µM | – | 4.3 µM | –
13 | Nc1nc(N)c2nc(-c3cc(F)ccc3F)c(N)nc2n1 [6-(2,5-difluorophenyl)pteridine-2,4,7-triamine (28)] | – | – | 38.4 µM | –
14 | Nc1nc(N)c2nc(-c3c(Cl)cccc3Cl)c(N)nc2n1 [6-(2,6-dichlorophenyl)pteridine-2,4,7-triamine (24)] | – | – | 38.9 µM | –
15 | Nc1nc(N)c2nc(-c3c(F)cccc3F)c(N)nc2n1 [6-(2,6-difluorophenyl)pteridine-2,4,7-triamine (27)] | – | 35.7 µM | 51.5 µM | –
16 | Nc1nc(N)c2nc(-c3ccccc3F)c(N)nc2n1 [6-(2-fluorophenyl)pteridine-2,4,7-triamine (23)] | – | – | 28.3 µM | –
17 | Nc1cccc(-c2nc3c(N)nc(N)nc3nc2N)c1 [6-(3-aminophenyl)pteridine-2,4,7-triamine (21)] | – | 32.4 µM | 12.4 µM | –
18 | Nc1nc(N)c2nc(-c3cccc(Br)c3)c(N)nc2n1 [6-(3-bromophenyl)pteridine-2,4,7-triamine (18)] | 9.3 µM | 2.5 µM | – | –

Reference: BindingDB's records for doi:10.1016/j.chembiol.2016.02.015 (Max Planck Institute of Molecular Physiology, 2016)
